Earlier results as cited in patent US20100113605A1 (priority 2007, published 2010).
Where two headings read alike, the source gives them in different places.

Assays:
rat striatal slices = conditions: for Percentage increase in [^3H]dopamine release: mean ± SEM (n ≧ 4), NS = not significantly different from basal [^3H]dopamine overflow; for release of [^3H]dopamine from superfused rat striatal slices: low (10^−7M) and high (10^−5M) concentration
DAT = DAT (Rattus norvegicus, UniProt P23977); conditions: for Site of action: 'Intraneuronal' cell continues 'via DAT'; for Pharmacodynamics of effect on synaptic [DA]: [DA] = dopamine concentration, cell wraps, ends with 'increases'; for Firing dependent effect on synaptic [DA]: in vivo
[1] = in vivo
[2] = tested on: electrically-evoked levels of extracellular dopamine in the nucleus accumbens; conditions: 100 nmol icv, 1 day after injection
[3] = tested on: extraneuronal dopamine concentrations in the nucleus accumbens
[4] = tested on: extraneuronal dopamine in the nucleus accumbens; conditions: d-amphetamine 0.5 mg/kg s.c.; tetrodotoxin 1×10^−6M

Chain of DAT (P23977 whole entry): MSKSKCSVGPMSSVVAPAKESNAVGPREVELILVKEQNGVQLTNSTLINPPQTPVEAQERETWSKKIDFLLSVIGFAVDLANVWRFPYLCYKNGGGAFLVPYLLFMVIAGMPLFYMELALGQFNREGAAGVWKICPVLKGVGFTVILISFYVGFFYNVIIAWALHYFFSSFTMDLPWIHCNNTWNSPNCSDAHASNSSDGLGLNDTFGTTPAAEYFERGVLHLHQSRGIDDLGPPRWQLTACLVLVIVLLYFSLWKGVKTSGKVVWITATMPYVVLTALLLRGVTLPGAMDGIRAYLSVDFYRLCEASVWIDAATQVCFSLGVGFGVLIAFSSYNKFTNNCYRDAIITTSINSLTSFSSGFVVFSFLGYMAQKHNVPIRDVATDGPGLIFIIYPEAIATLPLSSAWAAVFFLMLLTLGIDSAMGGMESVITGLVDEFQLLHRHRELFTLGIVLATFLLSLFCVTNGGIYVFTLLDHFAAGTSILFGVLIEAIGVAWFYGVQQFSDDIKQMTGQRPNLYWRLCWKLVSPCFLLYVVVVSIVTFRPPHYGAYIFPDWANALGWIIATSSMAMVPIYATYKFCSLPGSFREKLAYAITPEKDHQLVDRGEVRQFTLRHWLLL

Structure (SMILES) | Percentage increase in [^3H]dopamine release (rat striatal slices; 10^−5M) [%] | Percentage increase in [^3H]dopamine release (rat striatal slices; 10^−7M) | Site of action (DAT) | Pharmacodynamics of effect on synaptic [DA] (DAT) | Firing dependent effect on synaptic [DA] (DAT) | Euphoriant/psychostimulant [1] | release of [^3H]dopamine from superfused rat striatal slices (rat striatal slices) | further results
COC(=O)C(c1ccccc1)C1CCCCN1 (racemic) [Methylphenidate, dl-threo-methylphenidate] | 24 ± 7 | no stimulation | Extraneuronal | Rapid, very large | Yes | Yes |  | Percentage increase in [^3H]dopamine release (rat striatal slices; 10^−5M, listed as methylphenidate): statistically significant increase
CC(N)Cc1ccccc1 (centres unmarked) [Amphetamine] |  |  | Intraneuronal | Rapid, very large | No | Yes |  | 
CNC(CC(C)C)C1(c2ccc(Cl)cc2)CCC1 (centres unmarked) [BTS 54 354, N-{1-[1-(4-chlorophenyl)cyclobutyl]-3-methylbutyl}-N-methylamine] |  |  |  |  |  |  | did not release | 
CC(C)CC(N)C1(c2ccc(Cl)cc2)CCC1 (centres unmarked) [BTS 54 505, 1-[1-(4-chlorophenyl)cyclobutyl]-3-methylbutylamine] |  |  |  |  |  |  | did not release | 
CC(NC(C)(C)C)C(=O)c1cccc(Cl)c1 (centres unmarked) [Bupropion, bupropion] |  |  | Extraneuronal | Gradual, moderate, | Yes |  | did not release | 
CNC(C)Cc1ccc2c(c1)OCO2 (centres unmarked) [MDMA, methylenedioxymethamphetamine] |  |  | Intraneuronal | Rapid, very large | No | Yes |  | 
CN[C@@H](C)Cc1ccccc1 [Methamphetamine, methamphetamine] | 140 ± 10 | 37 ± 10 % | Intraneuronal | Rapid, very large | No | Yes | dose-dependently released | 
CN1C2CCC1C(C(=O)OCc1ccc(N=C=S)cc1)C(c1ccc(Cl)cc1)C2.Cl (stereo not drawn) [RTI-76, 3β-(ρ-chlorophenyl)tropan-2α-carboxylic acid ρ-isothio-cyanatophenylmethyl ester hydrochloride] |  |  |  |  |  |  |  | extracellular concentration of dopamine in the nucleus accumbens, electrically evoked [2]: increases the extracellular concentration of dopamine in the nucleus accumbens in a frequency-dependent manner
CC(C)CC(N(C)C)C1(c2ccc(Cl)cc2)CCC1 (centres unmarked) [Sibutramine, sibutramine] |  |  | Extraneuronal | Gradual, moderate, | Yes | No | did not release | increase in extraneuronal concentration of dopamine in the nucleus accumbens ([3]; 2.0 mg/kg ip, freely-moving rats): failed to reach statistical significance; time of maximum increase in extraneuronal dopamine ([3]; 6.0 mg/kg ip): 60 min; maximum increase in extraneuronal concentration of dopamine in the nucleus accumbens ([3]; 6.0 mg/kg ip, at 60 min, freely-moving rats, P<0.001): 231±87%
C[C@H](N)Cc1ccccc1 [d-Amphetamine, d-amphetamine] | 138 ± 15 | 56 ± 9 % |  |  |  |  | dose-dependently released | peak increase in extraneuronal dopamine concentration in the nucleus accumbens ([3]; 0.5 mg/kg ip): 242±89%; peak increase in extraneuronal dopamine concentration in the nucleus accumbens ([3]; 1.5 mg/kg ip): 603±319%; time of maximum increase in extraneuronal dopamine ([3]; both doses, 0.5 and 1.5 mg/kg ip): 40 min; effect of tetrodotoxin in the dialysate on the drug-evoked increase in extraneuronal dopamine [4]: not altered
